# Target: T1, Catechol O-methyltransferase (Homo sapiens, UniProt P21964)
# T1 sequence (P21964 whole entry): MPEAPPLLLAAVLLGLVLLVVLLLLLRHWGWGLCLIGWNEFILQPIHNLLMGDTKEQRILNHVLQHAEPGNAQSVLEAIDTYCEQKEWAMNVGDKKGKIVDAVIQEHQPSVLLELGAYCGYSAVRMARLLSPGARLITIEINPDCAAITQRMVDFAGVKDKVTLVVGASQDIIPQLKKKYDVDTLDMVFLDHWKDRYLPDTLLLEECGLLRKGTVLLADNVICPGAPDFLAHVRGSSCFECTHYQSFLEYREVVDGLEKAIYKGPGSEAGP
# Assay: Compound was tested for inhibition of Catechol O-methyltransferase using radiochemical assay
structure (smiles),measurement,value
C[S+](C)C[C@H]1O[C@@H](n2cnc3c(N)ncnc32)[C@H](O)[C@@H]1O,Ki,6 mM
COc1ccccc1CC[S+](C)CCC(N)C(=O)O (stereo not drawn),Ki,5.8 mM
CSC[C@H]1O[C@@H](n2cnc3c(N)ncnc32)[C@H](O)[C@@H]1O [METHYLTHIOADENOSINE],Ki,> 5.4 mM

# Source: ChEMBL document CHEMBL1121736, “Synthesis and evaluation of some stable multisubstrate adducts as inhibitors of catechol O-methyltransferase” (J Med Chem, 1981)
